Results as given in PubChem BioAssay (NCI).
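Method: 48-hour compound exposure of cells in 96-well plates, five concentrations, linear interpolation of endpoints. TGI: total growth inhibition.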

Assays:
Experiment in all cases: inhibition of tumour cell growth, NCI panel, 48 h
786-0 renal = test system: 786-0 renal
HOP-92 NSCLC = test system: HOP-92 NSCLC
NCI-H522 lung = test system: NCI-H522 lung
OVCAR-8 ovarian = test system: OVCAR-8 ovarian
SK-MEL-28 melanoma = test system: SK-MEL-28 melanoma
SNB-75 CNS = test system: SNB-75 CNS
TK-10 renal = test system: TK-10 renal
PC-3 prostate = test system: PC-3 prostate

Compound	TGI (786-0 renal) [µM]	TGI (HOP-92 NSCLC) [µM]	TGI (NCI-H522 lung) [µM]	TGI (OVCAR-8 ovarian) [µM]	TGI (SK-MEL-28 melanoma) [µM]	TGI (SNB-75 CNS) [µM]	TGI (TK-10 renal) [µM]	TGI (PC-3 prostate) [µM]
C[n+]1ccc(/C2=C3\C=CC(=N3)/C(c3cc[n+](C)cc3)=c3/cc/c([nH]3)=C(\c3cc[n+](C)cc3)C3=N/C(=C(/c4cc[n+](C)cc4)C4C=CC2N4)C=C3)cc1	> 100	> 100	> 100	> 100	> 100	> 100	> 100	
COc1cc(C2SCC(=O)N2c2cccc(Cl)c2)cc(OC)c1OC (stereo not drawn)	> 100	> 100	> 100	> 100	> 100		> 100	> 100
NCCSS(=O)(=O)CCN	> 100	> 100	> 100	> 100	> 100	> 100	> 100	> 100
CCC(CCCN)Nc1cc(OC)cc2c(C)ccnc12 (stereo not drawn)	28.8	30.6		42.2	30.6	25.3	31.7	26.2
COc1cc2c(c(OC)c1)/C(=C/Sc1ccccc1)C(=O)N(C(C)(C)C)C2	> 100	38.8		79.6	> 100		> 100	> 100
Oc1ccc(-c2cc(-c3cc(-c4ccc(O)cc4)no3)on2)cc1	> 100	> 100	> 100	> 100	> 100	> 100	> 100	> 100
NC(N)=NCCCC(NC(=O)c1cccc2c(=O)c3ccccc3[nH]c12)C(=O)O (stereo not drawn)	> 100	> 100	> 100	> 100	> 100	> 100	> 100	> 100
C=CCN1C(=O)/C(=C/c2cccs2)N=C1SC/C=C/C	> 100	> 100	97.5	> 100	> 100	> 100	> 100	> 100
O=c1[nH]cc(-c2c[nH]c3ccccc23)nc1-c1c[nH]c2ccccc12	23.5	33.3	20.3	25.7	31.7	23.7	30.5	51.1
O=C1C(Cl)=C(Nc2ccc(S(=O)(=O)O)cc2)C(=O)c2ccccc21	84.6	34.6	33.5	90.6	83.2	> 100	42.9	69.5
O=c1ssc(=Nc2ccccc2)n1-c1ccccc1	34.6	98.5		32.7	> 100	> 100	> 100	38.5
O=C(CCCN1CCC2(CC1)CC(c1ccccc1)OC2=O)c1ccc(F)cc1 (stereo not drawn)	67.5	76.9	> 100	> 100	> 100	54.2	> 100	> 100
COC(=O)[C@H](CCSC)NC(=O)N[C@H](C)c1ccccc1	> 100	> 100	47.5	> 100	> 100	> 100	> 100	> 100
CN(C)c1ccc(C(Cc2ccccc2)C2NC(=S)NC2=O)cc1 (stereo not drawn)	> 100	> 100	> 100	> 100	> 100	> 100	> 100	> 100
C=CCC1(OCc2ccccc2)C(=O)C(=O)OC1C1COC(C)(C)O1 (stereo not drawn)	> 100		> 100	> 100	> 100	> 100	> 100	> 100
CC(C)(C)OC(=O)NC(Cc1ccccc1)OCc1ccccc1 (stereo not drawn)	31		26.9	39.9	33.1	25.4	41.2	26.7
CCCCn1c(N)c(-c2nc3ccccc3o2)sc1=S	33	> 100	31.5	37.7	52.7		39.3	> 100
CC(=O)C1C(=O)C(=O)N(c2cccc([N+](=O)[O-])c2)C1=O (stereo not drawn)	> 100	> 100	> 100	> 100	> 100	> 100	> 100	> 100
Cn1c(=O)c2c(nc3n2CC(=O)N3CCCCl)n(C)c1=O	> 100	> 100		> 100	> 100	> 100	> 100	> 100
NC(N)=NCC[C@H](NC(=O)OCCCCCn1ccc(=O)[nH]c1=O)C(=O)O	> 100	> 100		> 100	> 100	> 100	> 100	> 100
O=C(c1ccccc1)c1ccc2nc(-c3c(Cl)c(Cl)c(Cl)c(Cl)c3C(=O)N/N=C/c3ccc(Cl)cc3)[nH]c2c1	99.6	> 100	> 100	> 100	> 100	> 100	> 100	> 100
CO/C(=N\N=C\c1ccc(OC)c(OC)c1)c1ccncc1	> 10	> 10		> 10		> 10	> 10	
CCC1(c2ccccc2)C(=O)N=C(c2ccccc2)N1CCc1ccccc1 (stereo not drawn)	> 100	> 100	> 100	> 100	> 100	> 100	> 100	> 100
CCN1C(=O)c2cc(OC)c(OC)cc2C(=O)C12OC(=O)c1cc3c(cc12)OCO3 (stereo not drawn)	53.7	> 100	> 100	> 100	> 100	48.5	> 100	> 100
COC1/C=C/C(C)C(C(C)C(OC)C(C)CCC(=O)C(C)C(C/C=C/N(C)C=O)OC)OC(=O)C=CC2OC2(C)CC(OC)C(OC)C2=CC(=O)O[C@@H](C(C)C(OC)CC(OC)/C=C/C(C)C(O)C1)[C@H]2O (stereo partly drawn)	0.0176	0.0235	0.0296				0.0304	0.0297
